# In patent US8329645B2, “Polymyxin derivatives and uses thereof” (priority 2008, dated 2012):
# Where a SMILES comes first, the peptide text is derived from it. Bridges are numbered along the chain shown (N, C = ends). [ ]: non-standard residue; d: D form. The star is where a group is joined. Octanoyl = CCCCCCCC(=O)*; Dab = NCC[C@H](N)C(=O)O; Abu = CC[C@H](N)C(=O)O
# System: E. coli IH3080 (O18:K1)
# Assay: Synergistic bactericidal activity with guinea pig serum (complement)
# Type: cell-based, Escherichia coli
# Method: The ability of NAB7061 to sensitize encapsulated, smooth strain of E. coli to the bactericidal action of normal guinea pig serum (GPS) was studied by the method described by Vaara et al. (1984). E. coli IH3080 (018,K1) was grown in LB broth (LB broth Lennox, Difco, BD, Sparks, Md., U.S.A) at 37° C. in a rotary shaker into early logarithmic growth phase, washed with PBS (phosphate-buffered saline, 8.0 g of NaCl, 0.2 g of KCl, 1.44 g of Na2HPO4×2H2O and 0.2 g of KH2PO4 per liter) and resuspended in PBS, to approx. 10^9 cells/ml). GPS was used as complement source. It was stored at −70° C. before use.
# The experimental procedure was as follows. 10% GPS in PBS was inoculated with approx. 500 CFU (colony forming units) of bacteria per ml and pipetted in 0.2 ml aliquots into wells of microtiter plates. The wells already contained increasing amounts of NAB7061 in 0.020 ml of 0.9% NaCl. The plate was incubated at 37° C. for 2 h whereafter each well was emptied onto LB plates. The plates were incubated overnight at 37° C. and the developed colonies were counted.
smiles,measurement,setting,value
"CCCCCCCC(=O)N[C@H](C(=O)N[C@@H](CC)C(=O)N[C@H]1CCNC(=O)[C@H]([C@@H](C)O)NC(=O)[C@H](CCN)NC(=O)[C@H](CCN)NC(=O)[C@H](CC(C)C)NC(=O)[C@@H](Cc2ccccc2)NC(=O)[C@H](CCN)NC1=O)[C@@H](C)O [NAB 7061, OA-Thr-Abu-cy[Dab-Dab-DPhe-Leu-Dab-Dab-Thr-]] (Octanoyl-T[Abu][Dab][Dab][dF]L[Dab][Dab]T; lactam 3-C)",% survival after 2-hour treatment at 37° C.,"10% GPS, heat inactivated, NAB7061 2 μg/ml",500%
same,% survival after 2-hour treatment at 37° C.,"10% GPS, NAB7061 2 μg/ml",2%
same,% survival after 2-hour treatment at 37° C.,"10% GPS, NAB7061 4 μg/ml",0%
same,% survival after 2-hour treatment at 37° C.,"none (PBS), NAB7061 2 μg/ml",97%
